From patent publication US9814704B2, “Substituted pyrrolo[2,3-b]pyridines as MLK inhibitors” (The University of Rochester, priority 2008, dated 2017) come the findings set out here.

The target of the first assay is MLK3 (Homo sapiens (Human), UniProt Q16584). Kind of assay: Radiometric Filter Plate MLK3 Assay. Type of assay: biochemical. The settings on record: 200 ng (130 nM) MLK3, 1 μM inactive MKK7b, 2 μM cold ATP (Km), 33P ATP, twenty minute incubation; read-out: MK3 IC50. As to the method: Radiometric Filter Plate MLK3 Assay
Chain of MLK3 (Q16584 whole entry): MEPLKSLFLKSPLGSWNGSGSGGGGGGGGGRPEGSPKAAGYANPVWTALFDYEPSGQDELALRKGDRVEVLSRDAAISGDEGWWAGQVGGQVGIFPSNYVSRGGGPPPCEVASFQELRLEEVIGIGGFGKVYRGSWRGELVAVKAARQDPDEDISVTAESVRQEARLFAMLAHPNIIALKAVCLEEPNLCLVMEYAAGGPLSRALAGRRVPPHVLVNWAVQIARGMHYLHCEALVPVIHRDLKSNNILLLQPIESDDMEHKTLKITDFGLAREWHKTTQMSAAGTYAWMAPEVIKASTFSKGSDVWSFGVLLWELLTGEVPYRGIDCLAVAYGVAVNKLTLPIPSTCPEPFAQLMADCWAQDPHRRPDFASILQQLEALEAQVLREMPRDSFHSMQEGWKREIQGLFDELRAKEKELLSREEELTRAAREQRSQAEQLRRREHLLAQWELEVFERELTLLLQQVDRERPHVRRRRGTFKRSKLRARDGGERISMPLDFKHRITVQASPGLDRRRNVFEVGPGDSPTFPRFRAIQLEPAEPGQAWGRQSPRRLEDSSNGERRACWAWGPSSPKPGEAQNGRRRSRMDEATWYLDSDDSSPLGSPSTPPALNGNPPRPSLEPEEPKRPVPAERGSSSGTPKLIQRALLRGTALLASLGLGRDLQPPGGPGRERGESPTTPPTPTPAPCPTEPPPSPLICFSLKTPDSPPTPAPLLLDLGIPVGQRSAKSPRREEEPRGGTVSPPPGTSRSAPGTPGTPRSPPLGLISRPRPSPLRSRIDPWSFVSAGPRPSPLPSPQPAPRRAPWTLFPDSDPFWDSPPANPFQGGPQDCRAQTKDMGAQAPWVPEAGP
After a twenty minute incubation, the reactions were washed through filter plates and read on a scintillation counter. Results are shown in Table 4 below, in which +++ indicates ≦0.1 μM, ++ indicates >0.1 μM and ≦1 μM, and + indicates >1 μM.
In general, IC50 refers to the midpoint of a concentration-inhibition curve. Regarding `CN(C)c1ccc(-c2cnc3[nH]cc(-c4ccc(F)c(Cl)c4)c3c2)cn1` [Example 22, 5-(3-(3-chloro-4-fluorophenyl)-1H-pyrrolo[2,3-b]pyridin-5-yl)-N,N-dimethylpyridin-2-amine], the IC50 is more than 1000 nM. As to `COc1cc(-c2cnc3[nH]cc(-c4ccc5c(ccn5C)c4)c3c2)cc(OC)c1OC` [Example 24, 3-(1-methyl-1H-indol-5-yl)-5-(3,4,5-trimethoxyphenyl)-1H-pyrrolo[2,3-b]pyridine], the IC50 was less than 100 nM.

On to `COc1cc(-c2cnc3[nH]cc(-c4ccc(C(N)=O)cc4)c3c2)cc(OC)c1OC` [Example 25, 4-(5-(3,4,5-trimethoxyphenyl)-1H-pyrrolo[2,3-b]pyridin-3-yl)benzamide], for which the IC50 was less than 100 nM. The same measure, in the same setting: with `COc1ccc(-c2cnc3[nH]cc(-c4ccc(C(N)=O)cc4)c3c2)cc1OC` [Example 26, 4-(5-(3,4-dimethoxyphenyl)-1H-pyrrolo[2,3-b]pyridin-3-yl)benzamide] the figure was less than 100 nM; with `Nc1ccc(-c2cnc3[nH]cc(-c4ccc(F)c(Cl)c4)c3c2)cn1` [Example 29, 5-(3-(3-chloro-4-fluorophenyl)-1H-pyrrolo[2,3-b]pyridin-5-yl)pyridin-2-amine], more than 1000 nM. Still for that read-out and setting: with `CN(C)Cc1ccc(-c2cnc3[nH]cc(-c4ccc5[nH]ccc5c4)c3c2)cc1` [Example 33, 1-(4-(3-(1H-indol-5-yl)-1H-pyrrolo[2,3-b]pyridin-5-yl)phenyl)-N,N-dimethylmethanamine] the figure was less than 100 nM; with `COc1cc(-c2cnc3[nH]cc(-c4ccc5[nH]ccc5c4)c3c2)ccc1OCCN(C)C` [Example 35, 2-(4-(3-(1H-indol-5-yl)-1H-pyrrolo[2,3-b]pyridin-5-yl)-2-methoxyphenoxy)-N,N-dimethylethanamine], more than 1000 nM. `COc1ccc(-c2cnc3[nH]cc(-c4ccc5[nH]ccc5c4)c3n2)cc1OC` [Example 37, 2-(3,4-dimethoxyphenyl)-7-(1H-indol-5-yl)-5H-pyrrolo[3,2-b]pyrazine]: the IC50 was less than 100 nM. Take `COc1cc(-c2cnc3[nH]cc(-c4ccc5[nH]ccc5c4)c3n2)ccc1N` [Example 38, 4-(7-(1H-indol-5-yl)-5H-pyrrolo[3,2-b]pyrazin-2-yl)-2-methoxyaniline]: the half-maximal inhibitory concentration (IC50) was less than 100 nM. The same measure, in the same setting: with `COc1cc(-c2cnc3[nH]cc(-c4ccc5[nH]ccc5c4)c3n2)ccc1OCCN1CCOCC1` [Example 39, 4-(2-(4-(7-(1H-indol-5-yl)-5H-pyrrolo[3,2-b]pyrazin-2-yl)-2-methoxyphenoxy)ethyl)morpholine] the figure was less than 100 nM; with `COc1cc(-c2cnc3[nH]c(=O)n(-c4ccc5[nH]ccc5c4)c3n2)cc(OC)c1OC` [Example 40, 1-(1H-indol-5-yl)-6-(3,4,5-trimethoxyphenyl)-1H-imidazo[4,5-b]pyrazin-2(3H)-one], less than 100 nM; with `Cn1ccc2cc(-n3c(=O)[nH]c4ncc(-c5ccc(O)cc5)nc43)ccc21` [Example 42, 6-(4-hydroxyphenyl)-1-(1-methyl-1H-indol-5-yl)-1H-imidazo[4,5-b]pyrazin-2(3H)-one], more than 1000 nM. With `Cc1cc(C)cc(-c2cnc3[nH]c(=O)n(-c4ccc5c(ccn5C)c4)c3n2)c1` [Example 43, 6-(3,5-dimethylphenyl)-1-(1-methyl-1H-indol-5-yl)-1H-imidazo[4,5-b]pyrazin-2(3H)-one], the IC50 is more than 1000 nM.

For `O=c1[nH]c2ncc(-c3ccncc3)nc2n1-c1ccc2[nH]ccc2c1` [Example 44, 1-(1H-indol-5-yl)-6-(pyridin-4-yl)-1H-imidazo[4,5-b]pyrazin-2(3H)-one], the half-inhibitory concentration (IC50) is more than 1000 nM. `Cc1cc(C)cc(-c2cnc3[nH]c(=O)n(-c4ccc5[nH]ccc5c4)c3n2)c1` [Example 46, 6-(3,5-dimethylphenyl)-1-(1H-indol-5-yl)-1H-imidazo[4,5-b]pyrazin-2(3H)-one]: the IC50 was more than 1000 nM. `O=c1[nH]c2ncc(-c3cc(Cl)cc(Cl)c3)nc2n1-c1ccc2[nH]ccc2c1` [Example 48, 6-(3,5-dichlorophenyl)-1-(1H-indol-5-yl)-1H-imidazo[4,5-b]pyrazin-2(3H)-one]: the IC50 was more than 1000 nM. Turning to `COc1ccc(-c2cnc3[nH]c(=O)n(-c4ccc5[nH]ccc5c4)c3n2)cc1F` [Example 49, 6-(3-fluoro-4-methoxyphenyl)-1-(1H-indol-5-yl)-1H-imidazo[4,5-b]pyrazin-2(3H)-one], the half-maximal inhibitory concentration (IC50) is more than 1000 nM. For the molecule `COc1cc(-c2cnc3[nH]c(=O)n(-c4ccc5[nH]ccc5c4)c3n2)ccc1O` [Example 55, 6-(4-hydroxy-3-methoxyphenyl)-1-(1H-indol-5-yl)-1H-imidazo[4,5-b]pyrazin-2(3H)-one], the IC50 was less than 100 nM.

For the molecule `O=c1[nH]c2ncc(-c3ccc4cc[nH]c4c3)nc2n1-c1ccc2[nH]ccc2c1` [Example 56, 1-(1H-indol-5-yl)-6-(1H-indol-6-yl)-1H-imidazo[4,5-b]pyrazin-2(3H)-one], the half-inhibitory concentration (IC50) is more than 1000 nM. Consider `COc1cc(-c2cnc3[nH]c(=O)n(-c4ccc5[nH]ccc5c4)c3n2)ccc1OCCN1CCOCC1` [Example 57, 1-(1H-indol-5-yl)-6-(3-methoxy-4-(2-morpholinoethoxy)phenyl)-1H-imidazo[4,5-b]pyrazin-2(3H)-one], for which the IC50 is less than 100 nM.

As to `O=c1[nH]c2ncc(-c3cc(F)c(O)c(F)c3)nc2n1-c1ccc2[nH]ccc2c1` [Example 59, 6-(3,5-difluoro-4-hydroxyphenyl)-1-(1H-indol-5-yl)-1H-imidazo[4,5-b]pyrazin-2(3H)-one], the IC50 is less than 100 nM.

As for `COc1cc(-c2cnc3[nH]c(=O)n(-c4ccc5[nH]ccc5c4)c3n2)ccc1N` [Example 60, 6-(4-amino-3-methoxyphenyl)-1-(1H-indol-5-yl)-1H-imidazo[4,5-b]pyrazin-2(3H)-one], the IC50 was less than 100 nM. Turning to `O=c1[nH]c2ncc(-c3cc(F)cc(F)c3)nc2n1-c1ccc2[nH]ccc2c1` [Example 61, 6-(3,5-difluorophenyl)-1-(1H-indol-5-yl)-1H-imidazo[4,5-b]pyrazin-2(3H)-one], the IC50 is more than 1000 nM. As to `COc1cc(-c2cnc3[nH]c(=O)n(-c4ccc5[nH]ccc5c4)c3n2)cc(OC)c1O` [Example 62, 6-(4-hydroxy-3,5-dimethoxyphenyl)-1-(1H-indol-5-yl)-1H-imidazo[4,5-b]pyrazin-2(3H)-one], the IC50 is less than 100 nM.

The assay is the same for the next values; noted with them: read-out: MK3 IC50.
As to `CN(C)c1ccc(-c2cnc3[nH]cc(-c4ccc(N(C)C)nc4)c3c2)cn1` [Example 21, 5,5′-(1H-pyrrolo[2,3-b]pyridine-3,5-diyl)bis(N,N-dimethylpyridin-2-amine)], the 50% inhibitory concentration (IC50) lay within 100 to 1000 nM. As to `Nc1ccc(-c2c[nH]c3ncc(-c4ccc(N)nc4)cc23)cc1` [Example 23, 5-(3-(4-aminophenyl)-1H-pyrrolo[2,3-b]pyridin-5-yl)pyridin-2-amine], the IC50 was in the range of 100 to 1000 nM.

Take `COc1cc(-c2cnc3[nH]cc(-c4ccc(C(N)=O)cc4)c3c2)ccc1N` [Example 27, 4-(5-(4-amino-3-methoxyphenyl)-1H-pyrrolo[2,3-b]pyridin-3-yl)benzamide]: the half-inhibitory concentration (IC50) lay in the range of 100 to 1000 nM.

Consider `NC(=O)c1ccc(-c2c[nH]c3ncc(-c4ccc(N)nc4)cc23)cc1` [Example 28, 4-(5-(6-aminopyridin-3-yl)-1H-pyrrolo[2,3-b]pyridin-3-yl)benzamide], for which the IC50 was in the range of 100 to 1000 nM. Turning to `CNc1ccc(-c2cnc3[nH]cc(-c4ccc5[nH]ccc5c4)c3c2)cn1` [Example 30, 5-(3-(1H-indol-5-yl)-1H-pyrrolo[2,3-b]pyridin-5-yl)-N-methylpyridin-2-amine], the IC50 was less than 100 nM. In the case of `COc1cc(-c2cnc3[nH]cc(-c4ccc5[nH]ccc5c4)c3c2)ccc1OCCN1CCNCC1` [Example 34, 3-(1H-indol-5-yl)-5-(3-methoxy-4-(2-(piperazin-1-yl)ethoxy)phenyl)-1H-pyrrolo[2,3-b]pyridine], the IC50 was less than 100 nM. Consider `COc1cc(-c2cnc3[nH]cc(-c4ccc5[nH]ccc5c4)c3n2)cc(OC)c1OC` [Example 36, 7-(1H-indol-5-yl)-2-(3,4,5-trimethoxyphenyl)-5H-pyrrolo[3,2-b]pyrazine], for which the IC50 was less than 100 nM. As for `COc1cc(-c2cnc3[nH]c(=O)n(-c4ccc5c(ccn5C)c4)c3n2)cc(OC)c1OC` [Example 41, 1-(1-methyl-1H-indol-5-yl)-6-(3,4,5-trimethoxyphenyl)-1H-imidazo[4,5-b]pyrazin-2(3H)-one], the IC50 fell in the range of 100 to 1000 nM. The same measure, in the same setting: with `O=c1[nH]c2ncc(-c3ccc(O)cc3)nc2n1-c1ccc2[nH]ccc2c1` [Example 45, 6-(4-hydroxyphenyl)-1-(1H-indol-5-yl)-1H-imidazo[4,5-b]pyrazin-2(3H)-one] the figure was 100 to 1000 nM; with `COc1ccc(-c2cnc3[nH]c(=O)n(-c4ccc5[nH]ccc5c4)c3n2)cc1OC` [Example 47, 6-(3,4-dimethoxyphenyl)-1-(1H-indol-5-yl)-1H-imidazo[4,5-b]pyrazin-2(3H)-one], 100 to 1000 nM.

For the molecule `COc1ccc(-c2cnc3[nH]c(=O)n(-c4ccc5[nH]ccc5c4)c3n2)cc1N` [Example 50, 6-(3-amino-4-methoxyphenyl)-1-(1H-indol-5-yl)-1H-imidazo[4,5-b]pyrazin-2(3H)-one], the concentration for half-maximal inhibition (IC50) was 100 to 1000 nM. Still for that read-out and setting: with `O=c1[nH]c2ncc(-c3ccc(N4CCOCC4)cc3)nc2n1-c1ccc2[nH]ccc2c1` [Example 52, 1-(1H-indol-5-yl)-6-(4-morpholinophenyl)-1H-imidazo[4,5-b]pyrazin-2(3H)-one] the figure was 100 to 1000 nM; with `O=c1[nH]c2ncc(-c3ccc4[nH]ccc4c3)nc2n1-c1ccc2[nH]ccc2c1` [Example 53, 1,6-di(1H-indol-5-yl)-1H-imidazo[4,5-b]pyrazin-2(3H)-one], 100 to 1000 nM.

Consider `O=c1[nH]c2ncc(-c3cccc(O)c3)nc2n1-c1ccc2[nH]ccc2c1` [Example 54, 6-(3-hydroxyphenyl)-1-(1H-indol-5-yl)-1H-imidazo[4,5-b]pyrazin-2(3H)-one], for which the IC50 was 100 to 1000 nM. Regarding `O=c1[nH]c2ncc(-c3cc(F)c(O)cc3F)nc2n1-c1ccc2[nH]ccc2c1` [Example 58, 6-(2,5-difluoro-4-hydroxyphenyl)-1-(1H-indol-5-yl)-1H-imidazo[4,5-b]pyrazin-2(3H)-one], the IC50 fell in the range of 100 to 1000 nM.
